According to PubChem BioAssay AID1259407 (Chemical Carcinogenesis Research Information System (CCRIS), 2018):
The source made the active and inactive calls. No rule for the calls is given here.

System: CCRIS mutagenicity, Ames/micronucleus/aberration tests
Assay: CCRIS mutagenicity studies
[1] = Test System: AMES SALMONELLA TYPHIMURIUM, Strain/Indicator: TA98, Metabolic Activation: NONE, Method: STANDARD PLATE
[2] = Test System: AMES SALMONELLA TYPHIMURIUM, Strain/Indicator: TA100, Metabolic Activation: NONE, Method: STANDARD PLATE
[3] = Test System: AMES SALMONELLA TYPHIMURIUM, Strain/Indicator: TA98, Metabolic Activation: NONE, Method: PREINCUBATION

With `O[C@@H]1C=C2c3ccccc3-c3cccc(c32)[C@H]1O` the mutagenic call (Test System: AMES SALMONELLA TYPHIMURIUM, Strain/Indicator: TM677, Metabolic Activation: NONE, Method: PREINCUBATION) was “active; positive” and the mutagenic call (Test System: AMES SALMONELLA TYPHIMURIUM, Strain/Indicator: TM677, Metabolic Activation: RAT, LIVER, POSTMITOCHONDRIAL SUPERNATANT, AROCLOR 1254, Method: PREINCUBATION) was “active; positive”.
`COc1ccc(-c2nc(-c3ccccc3)c(-c3ccccc3)[nH]2)cc1` was tested, and the mutagenic call [1] was “active; positive”, the mutagenic call (Test System: AMES SALMONELLA TYPHIMURIUM, Strain/Indicator: TA98, Metabolic Activation: RAT LIVER S-9, 3-METHYLCHOLANTHRENE, SODIUM PHENOBARBITAL, Method: STANDARD PLATE) was “inactive; negative” and the mutagenic call [2] was “active; positive”. For the same compound, the mutagenic call (Test System: AMES SALMONELLA TYPHIMURIUM, Strain/Indicator: TA100, Metabolic Activation: RAT LIVER S-9, 3-METHYLCHOLANTHRENE, SODIUM PHENOBARBITAL, Method: STANDARD PLATE) was “inactive; negative”.
In the case of `Nc1ccn([C@@H]2O[C@H](CO)[C@@H](O)C2O)c(=O)n1` (stereo partly drawn), the mutagenic call (End Point: IN VITRO MICRONUCLEUS, Test System: CHINESE HAMSTER V79 CELLS, Metabolic Activation: NONE) is reported as “active; positive”, the mutagenic call (End Point: IN VITRO MICRONUCLEUS, Test System: V79 CELLS, Metabolic Activation: NONE) is reported as “active; positive” and the mutagenic call (End Point: In vitro chromosomal aberrations, Test System: Human lymphocytes, Metabolic Activation: None) is reported as “active; positive (structural changes) (effects significant without chm)”. The mutagenic call (End Point: In vitro micronucleus, Test System: Human lymphoblastoid TK6 cells, Metabolic Activation: None) was “active; positive (p<0.001)”, the mutagenic call [1] was “inactive; negative” and the mutagenic call (Test System: AMES SALMONELLA TYPHIMURIUM, Strain/Indicator: TA98, Metabolic Activation: S-9, Method: STANDARD PLATE) was “inactive; negative”. The mutagenic call [2] was “inactive; negative”, the mutagenic call (Test System: AMES SALMONELLA TYPHIMURIUM, Strain/Indicator: TA100, Metabolic Activation: S-9, Method: STANDARD PLATE) was “inactive; negative” and the mutagenic call (Test System: AMES SALMONELLA TYPHIMURIUM, Strain/Indicator: TA102, Metabolic Activation: NONE, Method: STANDARD PLATE) was “inactive; negative”. The mutagenic call (Test System: AMES SALMONELLA TYPHIMURIUM, Strain/Indicator: TA1537, Metabolic Activation: NONE, Method: STANDARD PLATE) was “inactive; negative”, the mutagenic call (Test System: AMES SALMONELLA TYPHIMURIUM, Strain/Indicator: TA1537, Metabolic Activation: S-9, Method: STANDARD PLATE) was “inactive; negative” and the mutagenic call (Test System: CHINESE HAMSTER V-79, Strain/Indicator: V-79 (HGPRT)/6-THIOGUANINE, Metabolic Activation: NONE) was “inactive; negative”. For the same compound, the mutagenic call (Test System: CHINESE HAMSTER V-79, Strain/Indicator: V-79/6-THIOGUANINE, Metabolic Activation: NONE, Method: SUSPENSION/PLATE) was “active; positive”, the mutagenic call (Test System: CHINESE HAMSTER V-79, Strain/Indicator: V-79/6-THIOGUANINE, Metabolic Activation: RAT, LIVER, HEPATOCYTES, Method: SUSPENSION/PLATE) was “inactive; negative” and the mutagenic call (Test System: CHINESE HAMSTER V-79, Strain/Indicator: V-79/8-AZAGUANINE, Metabolic Activation: NONE, Method: STANDARD PLATE) was “active; positive”. For the same compound, the mutagenic call (Test System: E. COLI, Strain/Indicator: WP2 (HCR), Metabolic Activation: NONE, Method: STANDARD PLATE) was “active; positive”, the mutagenic call (Test System: E. COLI, Strain/Indicator: WP2 (HCR), Metabolic Activation: S-9, Method: STANDARD PLATE) was “active; positive” and the mutagenic call (Test System: MOUSE LYMPHOMA, Strain/Indicator: L5178Y (TK+/TK-), Metabolic Activation: NONE, Method: MICROWELL) was “active; positive”. For the same compound, the mutagenic call (Test System: MOUSE LYMPHOMA, Strain/Indicator: L5178Y (TK+/TK-), Metabolic Activation: NONE, Method: SUSPENSION/PLATE) was “active; positive” and the mutagenic call (Test System: MOUSE LYMPHOMA, Strain/Indicator: L5178Y (TK+/TK-), Metabolic Activation: S-9, Method: MICROWELL) was “active; positive”.
With `CN(C)CCN(Cc1ccsc1)c1ccccn1` the mutagenic call (Test System: AMES SALMONELLA TYPHIMURIUM, Strain/Indicator: TA98, Metabolic Activation: HAMSTER, LIVER, S-9, AROCLOR 1254 (10%), Method: PREINCUBATION) was “inactive; negative”, the mutagenic call [3] was “inactive; negative” and the mutagenic call (Test System: AMES SALMONELLA TYPHIMURIUM, Strain/Indicator: TA98, Metabolic Activation: RAT, LIVER, S-9, AROCLOR 1254 (10%), Method: PREINCUBATION) was “inactive; negative”. The mutagenic call (Test System: AMES SALMONELLA TYPHIMURIUM, Strain/Indicator: TA100, Metabolic Activation: HAMSTER, LIVER, S-9, AROCLOR 1254 (10%), Method: PREINCUBATION) was “inactive; negative”, the mutagenic call (Test System: AMES SALMONELLA TYPHIMURIUM, Strain/Indicator: TA100, Metabolic Activation: NONE, Method: PREINCUBATION) was “inactive; negative” and the mutagenic call (Test System: AMES SALMONELLA TYPHIMURIUM, Strain/Indicator: TA100, Metabolic Activation: RAT, LIVER, S-9, AROCLOR 1254 (10%), Method: PREINCUBATION) was “inactive; negative”. For the same compound, the mutagenic call (Test System: AMES SALMONELLA TYPHIMURIUM, Strain/Indicator: TA1535, Metabolic Activation: HAMSTER, LIVER, S-9, AROCLOR 1254 (10%), Method: PREINCUBATION) was “inactive; negative”, the mutagenic call (Test System: AMES SALMONELLA TYPHIMURIUM, Strain/Indicator: TA1535, Metabolic Activation: NONE, Method: PREINCUBATION) was “inactive; negative” and the mutagenic call (Test System: AMES SALMONELLA TYPHIMURIUM, Strain/Indicator: TA1535, Metabolic Activation: RAT, LIVER, S-9, AROCLOR 1254 (10%), Method: PREINCUBATION) was “inactive; negative”. For the same compound, the mutagenic call (Test System: AMES SALMONELLA TYPHIMURIUM, Strain/Indicator: TA1537, Metabolic Activation: HAMSTER, LIVER, S-9, AROCLOR 1254 (10%), Method: PREINCUBATION) was “inactive; negative”, the mutagenic call (Test System: AMES SALMONELLA TYPHIMURIUM, Strain/Indicator: TA1537, Metabolic Activation: NONE, Method: PREINCUBATION) was “inactive; negative” and the mutagenic call (Test System: AMES SALMONELLA TYPHIMURIUM, Strain/Indicator: TA1537, Metabolic Activation: RAT, LIVER, S-9, AROCLOR 1254 (10%), Method: PREINCUBATION) was “inactive; negative”.
For `CC(C)N(CC(O)COc1ccc(CC(N)=O)cc1)N=O` (stereo not drawn), the mutagenic call (Test System: UDS HUMAN HEPATOCYTES, Strain/Indicator: THY INCORP, Metabolic Activation: NONE, Method: AUTORADIOGRAPHY) was “active; positive” and the mutagenic call (Test System: UDS RAT HEPATOCYTES, Strain/Indicator: THY INCORP, Metabolic Activation: NONE, Method: AUTORADIOGRAPHY) was “active; positive”.
For `Cc1cc(N=Nc2ccccc2C)c(N)cc1N`, the mutagenic call (Test System: AMES SALMONELLA TYPHIMURIUM, Strain/Indicator: TA100, Metabolic Activation: HUMAN, LIVER, S-9, Method: PREINCUBATION) was “inactive; negative”, the mutagenic call (Test System: AMES SALMONELLA TYPHIMURIUM, Strain/Indicator: TA100, Metabolic Activation: RAT, LIVER, S-9, BETA-NAPHTHOFLAVONE, Method: PREINCUBATION) was “active; positive” and the mutagenic call (Test System: AMES SALMONELLA TYPHIMURIUM, Strain/Indicator: TA100, Metabolic Activation: RAT, LIVER, S-9, PHENOBARBITAL, Method: PREINCUBATION) was “active; positive”. For the same compound, the mutagenic call (Test System: AMES SALMONELLA TYPHIMURIUM, Strain/Indicator: TA100, Metabolic Activation: RAT, LIVER, S-9, Method: PREINCUBATION) was “active; positive” and the mutagenic call (Test System: UDS RODENT HEPATOCYTES, Strain/Indicator: THY INCORP, Metabolic Activation: NONE, Method: AUTORADIOGRAPHY) was “active; positive”.
For `C[C@H](CCC(=O)O)[C@H]1CC[C@H]2[C@@H]3CC[C@@H]4CC(=O)CC[C@]4(C)[C@H]3CC(=O)[C@]12C`, the mutagenic call (Test System: AMES SALMONELLA TYPHIMURIUM, Strain/Indicator: TA98, Metabolic Activation: NONE, Method: FLUCTUATION TEST) was “inactive; negative”, the mutagenic call [3] was “inactive; negative” and the mutagenic call (Test System: AMES SALMONELLA TYPHIMURIUM, Strain/Indicator: TA100, Metabolic Activation: NONE, Method: FLUCTUATION TEST) was “inactive; negative”.
